Each block holds one compound with its values, some of them ahead of it. The source made the active and inactive calls.
Columns and labels:
[1] = biological target: NACHT, LRR and PYD domains-containing protein 3 (Homo sapiens, UniProt Q96P20); assay: NALP3 inhibitors in yeast, dose response, luminescent (AID 488799); assay type: functional
Mu-type opioid receptor = Mu-type opioid receptor (Homo sapiens, UniProt P35372); assay: SAR Analysis of Antagonists of the MOR Receptor using an Image-Based Assay - Set 3. [Related pubchem assays (depositor defined):AID1777, AID1785, AID1786, AID1966, AID2133, AID2136, AID2284, AID2285, AID2420]; assay type: functional
Sequence of Mu-type opioid receptor (P35372 whole entry): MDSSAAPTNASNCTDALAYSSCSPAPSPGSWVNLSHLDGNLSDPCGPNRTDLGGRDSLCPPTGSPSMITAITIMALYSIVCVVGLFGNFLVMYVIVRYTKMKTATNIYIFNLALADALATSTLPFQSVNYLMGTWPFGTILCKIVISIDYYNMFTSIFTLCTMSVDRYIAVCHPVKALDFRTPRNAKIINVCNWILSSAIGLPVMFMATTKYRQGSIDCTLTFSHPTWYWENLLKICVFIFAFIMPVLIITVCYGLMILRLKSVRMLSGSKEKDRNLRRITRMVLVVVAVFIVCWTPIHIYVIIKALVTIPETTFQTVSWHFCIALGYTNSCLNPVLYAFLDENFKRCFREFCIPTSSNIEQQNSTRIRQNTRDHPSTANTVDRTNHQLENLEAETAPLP

[2] = biological target: T1, Kappa-type opioid receptor (Homo sapiens, UniProt P41145); assay: SAR analysis of small molecule antagonists of the kappa opioid receptor via a luminescent beta-arrestin assay - Set 4. [Related pubchem assays (depositor defined):AID1777, AID1778, AID1785, AID1786, AID1966, AID2133, AID2136, AID2285]; assay type: functional
T1 sequence (P41145 whole entry): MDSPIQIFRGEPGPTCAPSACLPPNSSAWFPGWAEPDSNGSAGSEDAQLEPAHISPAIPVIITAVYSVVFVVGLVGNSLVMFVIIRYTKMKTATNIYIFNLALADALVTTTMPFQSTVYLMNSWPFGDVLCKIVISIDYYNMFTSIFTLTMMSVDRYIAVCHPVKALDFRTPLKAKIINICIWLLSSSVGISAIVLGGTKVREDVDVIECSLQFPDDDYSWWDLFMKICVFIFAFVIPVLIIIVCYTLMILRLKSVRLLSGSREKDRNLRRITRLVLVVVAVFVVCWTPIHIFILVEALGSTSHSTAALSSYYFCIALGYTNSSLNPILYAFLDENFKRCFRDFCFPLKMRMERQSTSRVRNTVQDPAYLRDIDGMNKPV

[3] = biological target: Delta-type opioid receptor (Homo sapiens, UniProt P41143); assay: SAR Analysis of Antagonists of the DOR Receptor using an Image-Based Assay - Set 3. [Related pubchem assays (depositor defined):AID1777, AID1785]; assay type: functional;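 also: U2OS cells expressing DOR1 and beta-arrestin GFP stimulated with 100 nM SNC80; imaging of GFP-tagged beta-arrestin moving into spots after receptor activation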
Sequence of Delta-type opioid receptor (P41143 whole entry): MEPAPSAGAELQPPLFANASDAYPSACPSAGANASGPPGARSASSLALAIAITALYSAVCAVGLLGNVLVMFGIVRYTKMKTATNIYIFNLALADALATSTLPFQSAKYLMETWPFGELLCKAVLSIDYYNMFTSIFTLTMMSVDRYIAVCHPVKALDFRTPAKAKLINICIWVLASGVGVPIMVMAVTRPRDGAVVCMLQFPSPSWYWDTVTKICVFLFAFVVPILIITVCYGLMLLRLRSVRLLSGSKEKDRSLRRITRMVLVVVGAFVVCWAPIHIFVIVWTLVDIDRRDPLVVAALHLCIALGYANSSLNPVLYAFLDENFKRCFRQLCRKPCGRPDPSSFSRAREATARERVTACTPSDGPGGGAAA

[4] = biological target: T1, Kappa-type opioid receptor; assay: SAR analysis of Antagonists of the Kappa Opioid Receptor (KOR) using an Image-Based Assay - Set 4. [Related pubchem assays (depositor defined):AID1777, AID1785]; assay type: functional
Wee1-like protein kinase = Wee1-like protein kinase (Homo sapiens, UniProt P30291); assay: G2/M cell cycle arrest in HeLa, late-stage follow-up, mechanism study for Wee1 degradation inhibitor project, FACS, panel member Wee1 Degradation (AID 2088)
Sequence of Wee1-like protein kinase (P30291 whole entry): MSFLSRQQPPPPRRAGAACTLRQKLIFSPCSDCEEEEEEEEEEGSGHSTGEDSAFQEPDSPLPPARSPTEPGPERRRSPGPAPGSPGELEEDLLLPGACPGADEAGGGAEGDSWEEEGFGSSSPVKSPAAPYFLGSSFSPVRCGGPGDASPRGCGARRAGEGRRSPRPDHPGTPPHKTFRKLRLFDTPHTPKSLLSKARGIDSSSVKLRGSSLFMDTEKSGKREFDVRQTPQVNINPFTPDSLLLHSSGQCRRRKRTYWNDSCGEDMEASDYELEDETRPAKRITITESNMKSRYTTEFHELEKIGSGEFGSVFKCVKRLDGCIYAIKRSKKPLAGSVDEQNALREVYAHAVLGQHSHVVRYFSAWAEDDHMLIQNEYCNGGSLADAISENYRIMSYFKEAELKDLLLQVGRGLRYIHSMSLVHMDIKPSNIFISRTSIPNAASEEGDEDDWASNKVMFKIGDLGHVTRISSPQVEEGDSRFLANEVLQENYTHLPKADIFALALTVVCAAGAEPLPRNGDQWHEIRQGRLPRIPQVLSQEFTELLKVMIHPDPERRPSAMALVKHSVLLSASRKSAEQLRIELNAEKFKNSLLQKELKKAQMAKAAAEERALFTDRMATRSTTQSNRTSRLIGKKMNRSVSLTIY

[5] = biological target: G2/mitotic-specific cyclin-B1 (Homo sapiens, UniProt P14635); assay: G2/M cell cycle arrest in HeLa, late-stage follow-up, mechanism study for Wee1 degradation inhibitor project, FACS, panel member Cyclin B Degradation (AID 2088)
Sequence of G2/mitotic-specific cyclin-B1 (P14635 whole entry): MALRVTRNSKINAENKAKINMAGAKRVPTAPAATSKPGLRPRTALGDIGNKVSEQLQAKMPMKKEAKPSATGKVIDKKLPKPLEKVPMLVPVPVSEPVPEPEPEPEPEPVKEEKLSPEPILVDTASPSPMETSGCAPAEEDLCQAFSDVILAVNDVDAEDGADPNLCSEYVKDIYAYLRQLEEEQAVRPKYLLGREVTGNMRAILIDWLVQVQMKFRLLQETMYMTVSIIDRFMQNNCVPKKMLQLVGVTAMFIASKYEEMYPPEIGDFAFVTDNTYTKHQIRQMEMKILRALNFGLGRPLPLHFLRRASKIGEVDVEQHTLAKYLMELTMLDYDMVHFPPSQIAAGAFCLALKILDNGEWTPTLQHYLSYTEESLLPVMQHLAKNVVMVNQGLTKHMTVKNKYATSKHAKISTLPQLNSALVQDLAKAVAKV

[6] = biological target: Luciferin 4-monooxygenase (Photinus pyralis, UniProt P08659); assay: firefly luciferase enzyme inhibitors, dose response, biochemical, luminescence (AID 1891)
Sequence of Luciferin 4-monooxygenase (P08659 whole entry): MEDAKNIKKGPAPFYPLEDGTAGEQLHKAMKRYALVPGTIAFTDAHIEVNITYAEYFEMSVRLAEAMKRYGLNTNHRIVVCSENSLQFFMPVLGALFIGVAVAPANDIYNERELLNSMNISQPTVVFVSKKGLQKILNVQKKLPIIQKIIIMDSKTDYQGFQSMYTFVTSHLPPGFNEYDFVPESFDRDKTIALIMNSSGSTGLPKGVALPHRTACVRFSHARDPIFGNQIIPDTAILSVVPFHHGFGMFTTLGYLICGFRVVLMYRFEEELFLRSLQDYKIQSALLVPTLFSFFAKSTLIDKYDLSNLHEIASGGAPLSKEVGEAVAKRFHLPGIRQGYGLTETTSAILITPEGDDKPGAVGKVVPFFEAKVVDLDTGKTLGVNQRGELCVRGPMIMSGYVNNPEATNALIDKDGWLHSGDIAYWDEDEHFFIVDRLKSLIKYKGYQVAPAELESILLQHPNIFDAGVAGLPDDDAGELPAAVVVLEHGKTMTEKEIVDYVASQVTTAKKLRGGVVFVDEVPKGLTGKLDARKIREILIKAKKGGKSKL

[7] = Luminescence Cell-Based Dose Confirmation HTS to Identify Inhibitors of Platelet Dense Granule Release. [Related pubchem assays: 1663 (Primary HTS), 1678 (Summary of Project)]; assay type: functional
[8] = inhibition of ADP-Glo detection reagents, dose response, artefact control for CDK5 inhibitor project, biochemical, luminescence, cherry-picked samples, set 2 (AID 504546); assay type: functional
[9] = biological target: Cyclin-dependent kinase 5/CDK5 activator 1 (Homo sapiens, UniProt Q00535); assay: CDK5/p35 kinase inhibitors, dose response, biochemical, cherry-picked samples, set 2 (AID 504545)
Sequence of Cyclin-dependent kinase 5/CDK5 activator 1 (Q00535 whole entry): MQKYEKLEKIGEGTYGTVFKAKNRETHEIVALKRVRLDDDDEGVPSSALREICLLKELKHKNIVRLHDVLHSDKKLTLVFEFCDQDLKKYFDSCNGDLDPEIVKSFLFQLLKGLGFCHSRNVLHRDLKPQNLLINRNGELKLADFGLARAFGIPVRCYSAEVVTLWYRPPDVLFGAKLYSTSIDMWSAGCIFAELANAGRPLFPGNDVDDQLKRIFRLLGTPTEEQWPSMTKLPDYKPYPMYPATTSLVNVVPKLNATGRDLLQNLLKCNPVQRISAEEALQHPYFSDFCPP
Sequence of Cyclin-dependent kinase 5/CDK5 activator 1 (Q15078 whole entry, further chain): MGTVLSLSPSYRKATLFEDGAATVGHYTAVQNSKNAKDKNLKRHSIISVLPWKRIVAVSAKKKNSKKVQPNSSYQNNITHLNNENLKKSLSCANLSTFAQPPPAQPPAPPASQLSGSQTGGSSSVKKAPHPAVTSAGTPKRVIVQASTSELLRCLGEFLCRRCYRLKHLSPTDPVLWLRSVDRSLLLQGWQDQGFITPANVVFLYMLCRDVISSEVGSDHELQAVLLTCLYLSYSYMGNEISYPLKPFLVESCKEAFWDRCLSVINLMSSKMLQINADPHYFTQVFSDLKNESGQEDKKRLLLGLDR

[10] = cytotoxicity in HEK-293T cells, dose response, cytotoxicity control for BCR NF-kB inhibitor project, luminescence, B-cell screen hits (AID 489021); assay type: functional, cell-based;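 also: HEK-293T cells carrying an NF-kB luciferase reporter; cells exposed to compound for about 14 hours before viability readout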
[11] = biological target: T2, Histone-lysine N-methyltransferase NSD2 (Homo sapiens, UniProt O96028); assay type: biochemical
T2 sequence (O96028 whole entry): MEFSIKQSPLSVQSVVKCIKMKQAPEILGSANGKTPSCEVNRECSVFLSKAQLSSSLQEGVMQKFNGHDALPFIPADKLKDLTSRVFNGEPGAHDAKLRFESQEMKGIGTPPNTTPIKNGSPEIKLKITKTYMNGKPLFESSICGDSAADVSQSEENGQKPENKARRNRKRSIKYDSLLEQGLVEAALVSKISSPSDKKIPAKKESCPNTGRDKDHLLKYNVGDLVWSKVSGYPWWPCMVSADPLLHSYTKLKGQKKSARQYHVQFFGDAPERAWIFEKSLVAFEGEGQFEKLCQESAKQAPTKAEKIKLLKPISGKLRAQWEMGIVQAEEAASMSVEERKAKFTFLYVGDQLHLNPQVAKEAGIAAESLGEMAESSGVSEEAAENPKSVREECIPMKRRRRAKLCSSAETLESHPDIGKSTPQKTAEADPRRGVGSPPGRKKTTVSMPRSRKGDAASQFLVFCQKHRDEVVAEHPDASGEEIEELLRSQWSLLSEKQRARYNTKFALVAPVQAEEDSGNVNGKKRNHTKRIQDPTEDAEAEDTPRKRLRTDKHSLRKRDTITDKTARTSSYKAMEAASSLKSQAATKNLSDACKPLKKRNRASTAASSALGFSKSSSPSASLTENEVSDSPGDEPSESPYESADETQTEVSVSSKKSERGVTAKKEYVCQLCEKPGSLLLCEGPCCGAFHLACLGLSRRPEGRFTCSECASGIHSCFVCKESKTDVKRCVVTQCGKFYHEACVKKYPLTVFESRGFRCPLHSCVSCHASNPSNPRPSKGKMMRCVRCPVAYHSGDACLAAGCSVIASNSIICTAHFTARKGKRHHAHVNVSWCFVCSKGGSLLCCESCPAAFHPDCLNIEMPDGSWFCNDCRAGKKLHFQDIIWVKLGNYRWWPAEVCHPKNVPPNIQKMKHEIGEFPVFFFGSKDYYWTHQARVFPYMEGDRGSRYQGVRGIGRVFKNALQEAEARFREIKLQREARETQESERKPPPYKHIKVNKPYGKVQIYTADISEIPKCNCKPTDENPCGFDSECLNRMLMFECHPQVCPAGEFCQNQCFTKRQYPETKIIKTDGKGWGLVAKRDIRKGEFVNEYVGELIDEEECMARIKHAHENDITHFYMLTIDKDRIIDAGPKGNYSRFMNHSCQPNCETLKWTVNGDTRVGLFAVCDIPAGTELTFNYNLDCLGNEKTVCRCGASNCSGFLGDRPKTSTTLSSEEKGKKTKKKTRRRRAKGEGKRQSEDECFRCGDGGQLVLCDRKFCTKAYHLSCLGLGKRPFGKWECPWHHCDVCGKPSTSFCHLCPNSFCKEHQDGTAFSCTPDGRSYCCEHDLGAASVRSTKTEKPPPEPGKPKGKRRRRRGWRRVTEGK

Sequence of NACHT, LRR and PYD domains-containing protein 3 (Q96P20 whole entry, the tested form may be a part): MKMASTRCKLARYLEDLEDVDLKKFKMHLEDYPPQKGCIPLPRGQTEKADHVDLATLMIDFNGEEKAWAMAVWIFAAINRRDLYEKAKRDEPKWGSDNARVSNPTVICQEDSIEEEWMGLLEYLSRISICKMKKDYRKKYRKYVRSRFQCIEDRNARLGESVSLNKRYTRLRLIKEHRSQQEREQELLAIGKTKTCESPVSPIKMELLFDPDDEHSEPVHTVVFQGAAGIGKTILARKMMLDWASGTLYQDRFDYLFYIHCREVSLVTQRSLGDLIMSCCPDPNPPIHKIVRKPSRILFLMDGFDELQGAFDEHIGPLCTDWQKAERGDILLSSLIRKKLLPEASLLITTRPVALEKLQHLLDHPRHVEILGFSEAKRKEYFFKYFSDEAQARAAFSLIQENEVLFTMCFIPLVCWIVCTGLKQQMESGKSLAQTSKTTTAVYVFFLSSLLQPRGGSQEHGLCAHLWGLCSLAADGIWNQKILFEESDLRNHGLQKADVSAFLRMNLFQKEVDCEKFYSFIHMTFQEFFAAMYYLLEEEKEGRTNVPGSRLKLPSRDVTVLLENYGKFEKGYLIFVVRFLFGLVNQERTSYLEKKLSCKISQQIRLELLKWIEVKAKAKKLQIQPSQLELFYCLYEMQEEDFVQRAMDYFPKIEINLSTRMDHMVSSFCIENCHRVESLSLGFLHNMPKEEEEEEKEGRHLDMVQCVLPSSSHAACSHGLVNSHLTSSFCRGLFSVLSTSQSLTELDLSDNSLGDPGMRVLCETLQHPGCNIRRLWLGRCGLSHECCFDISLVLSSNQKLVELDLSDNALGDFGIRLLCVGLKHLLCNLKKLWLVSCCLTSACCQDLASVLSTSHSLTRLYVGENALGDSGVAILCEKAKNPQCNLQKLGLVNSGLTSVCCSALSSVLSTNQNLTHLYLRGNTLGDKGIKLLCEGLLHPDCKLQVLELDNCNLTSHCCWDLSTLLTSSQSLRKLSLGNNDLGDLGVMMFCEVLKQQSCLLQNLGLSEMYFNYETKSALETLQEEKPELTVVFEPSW

Compound: CCCCCNC(=O)C(=O)C1C(=O)Nc2ccccc21 (stereo not drawn)
IC50 [1]: 2.9 µM (active)

IC50 (Mu-type opioid receptor): > 32 µM (inactive)
IC50 [2]: > 20 µM (inactive)
IC50 [3]: > 32 µM (inactive)
IC50 [4]: > 32 µM (inactive)
Compound: Cc1ccc(S(=O)(=O)NCc2ccc(C(=O)NC3CCN(Cc4ccccc4)C3)cc2)cc1 (stereo not drawn)

EC50 (Wee1-like protein kinase): > 16.6 µM (active)
EC50 [5]: > 49.7 µM (inactive)
Compound: Cc1cc(O)nc(-n2nc(C)cc2NC(=O)c2cc3ccccc3o2)n1

Compound: COc1ccc(C(=O)O/N=C(\C)c2ccccc2)cc1
EC50 [6]: 0.637 µM (active)
EC50 [7]: 3.61 µM (active)
AC50 [8]: 90.4 µM (active)
AC50 [9]: 26.1 µM (active)

Compound: CCN(CC)CCC/N=C/c1c(-c2ccccc2)nn(-c2nc3ccccc3s2)c1O
IC50 [10]: > 80 µM (inactive)
AC50 [11]: > 20 µM (inactive)

— ChEMBL document CHEMBL1201862, “PubChem BioAssay data set” (2004)
